Our source for the IC50, Activity and inhibition values is ChEMBL document CHEMBL5625270, “Targeting ATP-binding site of WRN Helicase: Identification of novel inhibitors through pocket analysis and Molecular Dynamics-Enhanced virtual screening” (Bioorg Med Chem Lett, 2024).

The term IC50 denotes the concentration needed to halve the response being measured.

Active and inactive are the calls of the source. No cut-off for these calls is given here.

The target in assay [1] is T1, Bifunctional 3'-5' exonuclease/ATP-dependent helicase WRN (Homo sapiens, UniProt Q14191). In words: Inhibition of recombinant human WRN unwinding activity by immunosorbent-based helicase unwinding assay.
Assay [2] concerns the target T1, Bifunctional 3'-5' exonuclease/ATP-dependent helicase WRN. In words: Inhibition of WRN (unknown origin) ATPase activity.
The subject of assay [3] is Microsatellite instability cancer cell. In words: Cytotoxicity against Microsatellite instability cancer cell (unknown origin). Format: functional, cell-based.
Assay [4] concerns the target T2, Eukaryotic initiation factor 4A-I (Homo sapiens, UniProt P60842). In words: Inhibition of eIF4A (unknown origin) ATPase activity within 200 uM.
Assay [5] is described as follows: Inhibition of HSP90 (unknown origin) ATPase activity. Further details: species or system Homo sapiens.
The target of assay [6] is RecQ-like DNA helicase BLM (Homo sapiens, UniProt P54132). In words: Inhibition of BLM (unknown origin) ATPase activity.
Assay [7] concerns the target T1, Bifunctional 3'-5' exonuclease/ATP-dependent helicase WRN. In words: Inhibition of WRN (unknown origin).
The target in assay [8] is T2, Eukaryotic initiation factor 4A-I. In words: Inhibition of eIF4A (unknown origin) ATPase activity.
The species named for assay [9] is Homo sapiens. In words: Inhibition of HSP90 (unknown origin) ATPase activity within 200 uM.
The target of assay [10] is T2, Eukaryotic initiation factor 4A-I. In words: Inhibition of eIF4A (unknown origin) ATPase activity at <200 uM.
The species named for assay [11] is Homo sapiens. In words: Inhibition of HSP90 (unknown origin) ATPase activity at <200 uM.

T1 sequence (Q14191 whole entry): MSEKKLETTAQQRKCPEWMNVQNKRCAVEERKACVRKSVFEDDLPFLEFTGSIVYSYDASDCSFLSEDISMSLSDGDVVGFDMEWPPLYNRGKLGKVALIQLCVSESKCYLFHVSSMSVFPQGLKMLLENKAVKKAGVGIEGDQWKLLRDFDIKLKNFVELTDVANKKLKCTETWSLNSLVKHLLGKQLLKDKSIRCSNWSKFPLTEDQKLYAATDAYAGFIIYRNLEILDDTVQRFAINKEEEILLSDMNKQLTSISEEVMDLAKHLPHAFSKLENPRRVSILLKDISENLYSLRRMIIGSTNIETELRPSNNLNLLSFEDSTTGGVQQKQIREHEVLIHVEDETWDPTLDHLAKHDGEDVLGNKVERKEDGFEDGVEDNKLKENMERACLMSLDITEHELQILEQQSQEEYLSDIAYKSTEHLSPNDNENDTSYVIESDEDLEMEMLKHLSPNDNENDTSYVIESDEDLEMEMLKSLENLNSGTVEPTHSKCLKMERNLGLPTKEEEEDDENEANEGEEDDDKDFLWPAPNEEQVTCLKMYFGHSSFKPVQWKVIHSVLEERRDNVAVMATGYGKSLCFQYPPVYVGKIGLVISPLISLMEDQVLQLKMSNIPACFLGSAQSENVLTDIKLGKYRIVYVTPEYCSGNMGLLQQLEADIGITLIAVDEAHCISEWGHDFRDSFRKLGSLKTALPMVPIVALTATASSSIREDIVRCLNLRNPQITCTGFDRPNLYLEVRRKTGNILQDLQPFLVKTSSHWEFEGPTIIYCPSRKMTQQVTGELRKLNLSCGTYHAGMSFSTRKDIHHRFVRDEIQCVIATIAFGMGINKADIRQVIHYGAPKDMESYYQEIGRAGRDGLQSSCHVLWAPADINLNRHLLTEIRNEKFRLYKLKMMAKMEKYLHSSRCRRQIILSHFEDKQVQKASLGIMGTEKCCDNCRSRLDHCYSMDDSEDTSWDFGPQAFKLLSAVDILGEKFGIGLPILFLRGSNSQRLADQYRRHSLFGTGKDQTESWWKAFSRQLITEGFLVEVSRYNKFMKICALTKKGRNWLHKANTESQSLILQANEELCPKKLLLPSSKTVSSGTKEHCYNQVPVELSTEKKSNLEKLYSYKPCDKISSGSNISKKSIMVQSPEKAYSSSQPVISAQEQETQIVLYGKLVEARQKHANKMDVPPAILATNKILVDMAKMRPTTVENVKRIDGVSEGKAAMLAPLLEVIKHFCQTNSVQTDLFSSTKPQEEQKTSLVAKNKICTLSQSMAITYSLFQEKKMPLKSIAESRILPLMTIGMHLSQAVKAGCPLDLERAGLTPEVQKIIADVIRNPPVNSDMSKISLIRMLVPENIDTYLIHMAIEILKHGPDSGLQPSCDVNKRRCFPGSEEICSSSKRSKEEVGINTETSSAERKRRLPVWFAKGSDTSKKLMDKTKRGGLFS
T2 sequence (P60842 whole entry): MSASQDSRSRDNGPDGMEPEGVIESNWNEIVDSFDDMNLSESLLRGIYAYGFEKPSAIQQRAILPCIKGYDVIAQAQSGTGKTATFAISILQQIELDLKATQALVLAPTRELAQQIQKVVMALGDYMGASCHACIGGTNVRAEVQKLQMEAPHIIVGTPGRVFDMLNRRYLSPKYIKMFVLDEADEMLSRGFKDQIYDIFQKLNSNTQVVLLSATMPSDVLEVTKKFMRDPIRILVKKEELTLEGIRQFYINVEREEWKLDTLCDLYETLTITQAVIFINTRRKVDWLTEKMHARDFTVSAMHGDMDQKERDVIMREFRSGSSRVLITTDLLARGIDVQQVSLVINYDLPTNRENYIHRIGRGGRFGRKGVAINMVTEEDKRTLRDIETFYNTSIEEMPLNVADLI
RecQ-like DNA helicase BLM, sequence (P54132 whole entry): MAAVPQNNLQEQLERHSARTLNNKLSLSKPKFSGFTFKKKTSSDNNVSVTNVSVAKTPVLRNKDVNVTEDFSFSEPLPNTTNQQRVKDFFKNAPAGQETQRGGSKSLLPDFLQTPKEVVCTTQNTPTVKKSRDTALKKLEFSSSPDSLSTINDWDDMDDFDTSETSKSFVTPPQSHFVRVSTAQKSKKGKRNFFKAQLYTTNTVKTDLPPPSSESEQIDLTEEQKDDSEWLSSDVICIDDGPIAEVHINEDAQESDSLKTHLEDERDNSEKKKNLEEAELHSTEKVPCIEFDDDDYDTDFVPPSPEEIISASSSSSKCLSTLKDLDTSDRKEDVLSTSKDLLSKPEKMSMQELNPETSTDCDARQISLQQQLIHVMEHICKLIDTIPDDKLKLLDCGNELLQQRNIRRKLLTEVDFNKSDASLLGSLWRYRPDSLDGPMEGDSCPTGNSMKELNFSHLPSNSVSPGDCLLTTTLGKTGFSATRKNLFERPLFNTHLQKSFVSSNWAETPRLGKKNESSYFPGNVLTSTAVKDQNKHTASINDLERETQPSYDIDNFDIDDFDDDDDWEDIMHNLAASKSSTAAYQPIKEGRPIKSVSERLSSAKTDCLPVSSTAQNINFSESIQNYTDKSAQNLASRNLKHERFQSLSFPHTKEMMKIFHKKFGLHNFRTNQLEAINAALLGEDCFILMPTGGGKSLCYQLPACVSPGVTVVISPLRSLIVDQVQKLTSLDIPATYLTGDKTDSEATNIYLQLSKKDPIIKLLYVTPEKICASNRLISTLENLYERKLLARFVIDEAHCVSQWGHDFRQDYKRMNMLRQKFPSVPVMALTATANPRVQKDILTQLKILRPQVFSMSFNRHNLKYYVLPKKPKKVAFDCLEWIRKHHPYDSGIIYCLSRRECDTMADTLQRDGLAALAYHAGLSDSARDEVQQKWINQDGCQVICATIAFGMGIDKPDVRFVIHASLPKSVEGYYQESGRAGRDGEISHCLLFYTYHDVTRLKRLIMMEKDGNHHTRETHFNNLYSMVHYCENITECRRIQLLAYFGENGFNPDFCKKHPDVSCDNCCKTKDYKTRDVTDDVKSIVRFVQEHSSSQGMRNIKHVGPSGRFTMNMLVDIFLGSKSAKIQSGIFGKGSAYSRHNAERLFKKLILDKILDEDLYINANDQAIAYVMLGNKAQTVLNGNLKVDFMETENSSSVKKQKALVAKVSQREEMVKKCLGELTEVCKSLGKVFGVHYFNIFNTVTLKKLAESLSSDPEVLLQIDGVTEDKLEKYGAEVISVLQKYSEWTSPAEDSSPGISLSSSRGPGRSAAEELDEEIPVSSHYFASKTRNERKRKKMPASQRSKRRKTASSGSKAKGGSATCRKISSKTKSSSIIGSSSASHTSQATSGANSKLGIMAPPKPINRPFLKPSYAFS

Turning to `Cc1ccc(NC(=O)CN2C(=O)N/C(=C/c3ccccc3OCc3cccc(C(=O)O)c3)C2=O)cc1`, the IC50 in assay [1] came to 9.8 µM; in assay [2] it was 15.8 µM; in [5] it was 47.6 µM; in assay [6], 26.3 µM. For the same compound, the outcome in [3] was inactive. For the same compound, in assay [4], the inhibition result is “inactive”.

In the case of `COc1ccc2nc(O)c(-c3noc(-c4ccccc4)n3)cc2c1`, it took 2.3 µM to reach half-maximal inhibition in [7] (IC50).

Regarding `CCC(=O)OCN1C(=O)C=CC1=O`, the values for the IC50 in assay [8], in assay [2] and in [6] were > 200 µM, 10.4 µM and 1.6 µM, respectively. Further, in the assay listed under Homo sapiens [9], the inhibition result was “inactive”. Also, in assay [10], the inhibition entry is “Active”.

With `CC(C)(CN1C(=O)C(Cl)=C(Cl)C1=O)CN1C(=O)C(Cl)=C(Cl)C1=O`, the inhibition result (in the assay filed under Homo sapiens [9]; in assay [4]) was “inactive” throughout. The concentration for half-maximal inhibition (IC50) in assay [7] turned out to be 0.23 µM; in [2] it was 88.7 µM; in assay [6], 11.3 µM.

In the case of `COc1ccc2nc(O)c(-c3noc(-c4ccc(F)cc4)n3)cc2c1`, the IC50 in [7] turned out to be 13 µM.

In the case of `O=C1/C(=C2\Nc3ccc(S(=O)(=O)O)cc3C2=O)Nc2ccc(S(=O)(=O)O)cc21` [INDIGOTINDISULFONATE], the half-maximal inhibitory concentration (IC50) in [8] is > 200 µM; in assay [1], 0.2 µM; in [2], 5 µM; in assay [5] it was > 200 µM; in assay [6], 3.3 µM. In addition, the inhibition entry (in the assay listed under Homo sapiens [11]; in assay [10]) was “Active” each time.
